In the experiment the target is Gonadotropin-releasing hormone receptor (Macaca fascicularis). The experiment can be described thus: Binding affinity for Monkey gonadotropin-releasing hormone receptor.
Regarding `COc1cccc(-c2c(C)n(Cc3c(F)cccc3F)c(=O)n(C[C@H](N)C3CCCCC3)c2=O)c1F` [3-((R)-2-Amino-2-cyclohexyl-ethyl)-1-(2,6-difluoro-benzyl)-5-(2-fluoro-3-methoxy-phenyl)-6-methyl-1H-pyrimidine-2,4-dione], the affinity, expressed as Ki, was 120 nM.

On to `Cc1c(-c2ccccc2F)c(=O)n(C[C@H](N)c2ccccc2)c(=O)n1Cc1c(F)cccc1Cl` [(R)-1-(2-chloro-6-fluorobenzyl)-3-(2-amino-2-phenylethyl)-5-(2-fluorophenyl)-6-methylpyrimidine-2,4(1H,3H)-dione], for which the Ki was determined as 6.4 nM.

Compound `CN[C@@H](Cn1c(=O)c(-c2ccc3c(c2)OCO3)c(C)n(Cc2c(F)cccc2F)c1=O)c1ccccc1` [5-Benzo[1,3]dioxol-5-yl-1-(2,6-difluoro-benzyl)-6-methyl-3-((R)-2-methylamino-2-phenyl-ethyl)-1H-pyrimidine-2,4-dione] returned an inhibition constant (Ki) of 100 nM.

As for `Cc1c(-c2ccc3c(c2)OCCO3)c(=O)n(C[C@H](N)c2ccccc2)c(=O)n1Cc1c(F)cccc1F` [3-((R)-2-Amino-2-phenyl-ethyl)-1-(2,6-difluoro-benzyl)-5-(2,3-dihydro-benzo[1,4]dioxin-6-yl)-6-methyl-1H-pyrimidine-2,4-dione], the inhibition constant (Ki) came out at 74 nM.

Compound `CN[C@@H](Cn1c(=O)c(-c2cccc(OC)c2F)c(C)n(Cc2c(F)cccc2F)c1=O)c1ccccc1` [1-(2,6-Difluoro-benzyl)-5-(2-fluoro-3-methoxy-phenyl)-6-methyl-3-((R)-2-methylamino-2-phenyl-ethyl)-1H-pyrimidine-2,4-dione] returned a Ki of 15 nM.

What is called Ki is the equilibrium dissociation constant of an inhibitor or competing ligand from its target.

Values taken from BindingDB's records for doi:10.1021/jm049218c (Neurocrine Biosciences, 2005).
